Experimental data: patent publication US8329726B2, “Inhibitors of VEGF receptor and HGF receptor signaling” (MethylGene Inc., priority 2005, dated 2012)
pIC50: −log10 of the molar value.

How the values were obtained:
[1] = system: A549; assay: A549 wound healing inhibition (HGF dependent migration); format: cell-based; details: Homo sapiens, A549 cells, read-out: A549 WOUND HEALING INHIB IC50
Excerpt: (§1) HGF has well known activity in terms of inducing scattering and migration (wound healing) (Wells et al., Cell Motil Cytoskeleton. 2005 November 62(3):180-94; Miura et al., Urology 2001 December 58(6):1064-9; Nishimura et al., Int J Urol. 1998 May 5(3):276-81; Wang et al., Mol Cancer Ther. 2003 November; 2(11):1085-92; and Christensen et al., Cancer Res. 2003 Nov. 1; 63(21):7345-55).

[2] = target: T1, VEGF receptor KDR (Homo sapiens, UniProt P35968); assay: In vitro receptor tyrosine kinase assay (DELFIA), VEGF receptor KDR; format: biochemical; details: read-out: VEGFR IC50
T1 construct: made in house; host or cells: Sf9 cells (Spodoptera frugiperda), baculovirus
Description: In the case of VEGF receptor KDR a 1.6-kb cDNA corresponding to the catalytic domain of VEGFR2 or KDR (Genbank accession number AF035121 amino acid 806 to 1356) was cloned into the Pst I site of the pDEST20 Gateway vector (Invitrogen) for the production of a GST-tagged version of that enzyme.
The GST-VEGFR2806-1356 protein was expressed in […] (Spodoptera frugiperda) upon infection with recombinant baculovirus construct. […] Cell pellets were frozen at −80° C. until purification was performed.
The supernatant (cell extract) was used as starting material for purification of GST-VEGFR2806-1356.
The supernatant was loaded onto a GST-agarose column (Sigma) equilibrated with PBS pH 7.3. Following a four column volume (CV) wash with PBS pH 7.3+1% Triton X-100 and 4 CV wash with buffer B (50 mM Tris pH 8.0, 20% glycerol and 100 mM NaCl), bound proteins were step eluted with 5 CV of buffer B supplemented with 5 mM DTT and 15 mM glutathion. GST-VEGFR2806-1356 enriched fractions from this chromatography step were pooled based on U.V. trace i.e. fractions with high O.D.280. Final GST-VEGFR2806-1356 protein preparations concentrations were about 0.7 mg/ml with purity approximating 70%.
(§2) The coated plates were washed and stored at 4° C. […] After incubation, the kinase reactions were quenched with EDTA and the plates were washed.

[3] = system: DU145; assay: DU145 scattering inhibition (HGF dependent scattering); format: cell-based; details: Homo sapiens, DU-145; HGF dependent scattering, DU145 cells; read-out: DU145 SCATTERING INHIB IC50
Excerpt: as §1

[4] = target: T2, recombinant human c-Met/HGF receptor (Homo sapiens, UniProt P08581); assay: In vitro receptor tyrosine kinase assay (DELFIA), c-Met/HGF receptor; format: biochemical; details: read-out: CMET IC50
T2 construct: His tag (pBlueBacHis2A vector); made in house; host or cells: Hi-5 cells (Trichoplusia ni), baculovirus
Description: Cell pellets were frozen at −80° C. until purification was performed.
as §2

T2 sequence (P08581 1078-1337): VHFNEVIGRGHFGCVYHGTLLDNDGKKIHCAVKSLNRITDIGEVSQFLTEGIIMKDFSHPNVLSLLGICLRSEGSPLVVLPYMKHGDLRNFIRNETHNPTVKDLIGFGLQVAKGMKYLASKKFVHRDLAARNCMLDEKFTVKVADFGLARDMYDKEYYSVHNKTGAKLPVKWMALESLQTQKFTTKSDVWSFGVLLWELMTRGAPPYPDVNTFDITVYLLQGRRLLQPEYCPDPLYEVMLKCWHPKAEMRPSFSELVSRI
T1 sequence (P35968 806-1356): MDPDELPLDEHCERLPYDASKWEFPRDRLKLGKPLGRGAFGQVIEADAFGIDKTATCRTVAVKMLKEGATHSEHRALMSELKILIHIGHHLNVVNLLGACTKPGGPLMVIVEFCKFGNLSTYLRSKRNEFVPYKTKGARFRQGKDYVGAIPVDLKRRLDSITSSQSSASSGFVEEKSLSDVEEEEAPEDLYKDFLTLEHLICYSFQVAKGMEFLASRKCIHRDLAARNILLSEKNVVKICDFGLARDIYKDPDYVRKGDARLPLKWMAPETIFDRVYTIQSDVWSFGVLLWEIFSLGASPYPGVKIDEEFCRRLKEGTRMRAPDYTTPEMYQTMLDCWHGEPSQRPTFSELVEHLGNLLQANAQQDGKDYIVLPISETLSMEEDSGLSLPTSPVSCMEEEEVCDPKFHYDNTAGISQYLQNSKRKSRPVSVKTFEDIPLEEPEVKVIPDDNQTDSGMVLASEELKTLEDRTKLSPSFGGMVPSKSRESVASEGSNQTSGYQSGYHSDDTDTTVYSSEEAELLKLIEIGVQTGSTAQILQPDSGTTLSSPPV

Compound | pIC50 [1] | pIC50 [2] | pIC50 [3] | pIC50 [4]
O=C(Nc1ccc(Oc2ccnc3cc(-c4ccc(CN5CCNCC5)cc4)sc23)c(F)c1)N1CCN(c2ccccc2)C1=O | > 6.00 | > 7.30 | > 6.00 | > 7.30
CN(C(=O)CC(=O)Nc1ccc(Oc2ccnc3cc(C(=O)N(C)N(C)C)sc23)c(F)c1)c1ccccc1 | < 5.00 | < 6.30 | < 5.00 | 6.30 to 6.60
COc1ccccc1NC(=O)CC(=O)Nc1ccc(Oc2ccnc3cc(-c4cn(C(C)C)cn4)sc23)c(F)c1 | > 6.00 | > 7.30 | > 6.00 | > 7.30
CN(C)Cc1cccc(-c2cc3nccc(Oc4ccc(NC(=O)CC(=O)Nc5ccccc5F)cc4F)c3s2)c1 [drawing 316] | 5.30 to 6.00 | 6.60 to 7.30 | > 6.00 | > 7.30
CNC(=O)N1CCN(Cc2ccc(-c3cc4nccc(Oc5ccc(NC(=O)N6CCN(c7ccccc7)C6=O)cc5F)c4s3)cc2)CC1 | > 6.00 | > 7.30 | > 6.00 | > 7.30
CN1CCN(Cc2ccc(-c3cc4nccc(Oc5ccc(NC(=O)C6CCN(c7ccccc7)C6=O)cc5F)c4s3)cc2)CC1 (centres unmarked) | 5.30 to 6.00 | > 7.30 | 5.30 to 6.00 | 6.60 to 7.30
CN(C(=O)C1(C(=O)Nc2ccc(Oc3ccnc4cc(-c5cn(C)cn5)sc34)c(F)c2)CC1)c1ccccc1 | > 6.00 | 6.60 to 7.30 | 5.30 to 6.00 | < 6.30
CCn1cnc(-c2cc3nccc(Oc4ccc(NC(=O)C5(C(=O)Nc6ccccc6OC)CC5)cc4F)c3s2)c1 | > 6.00 | > 7.30 | > 6.00 | > 7.30
CN(C)CCCN(C)Cc1ccc(-c2cc3nccc(Oc4ccc(NC(=O)CC(=O)N(C)c5ccccc5)cc4F)c3s2)cc1 | > 6.00 | > 7.30 | > 6.00 | > 7.30
O=C(O)Cn1cnc(-c2cc3nccc(Oc4ccc(NC(=O)CC(=O)Nc5ccccc5)cc4F)c3s2)c1 | < 5.00 | > 7.30 | < 5.00 | > 7.30
CCn1cncc1-c1cc2nccc(Oc3ccc(NC(=O)CC(=O)Nc4ccccc4OC)cc3F)c2s1 | 5.30 to 6.00 | 6.60 to 7.30 | > 6.00 | 6.60 to 7.30
CCn1cnc(-c2cc3nccc(Oc4ccc(NC(=O)CC(=O)Nc5cccc(F)c5)cc4F)c3s2)c1 | > 6.00 | > 7.30 | 5.30 to 6.00 | 6.60 to 7.30
CN1CCN(C(=O)CC(=O)Nc2ccc(Oc3ccnc4cc(-c5cn(C)cn5)sc34)c(F)c2)c2ccccc21 | 5.30 to 6.00 | > 7.30 | 5.30 to 6.00 | > 7.30
CCn1cnc(-c2cc3nccc(Oc4ccc(NC(=O)CC(=O)Nc5cccc(OC)c5)cc4F)c3s2)c1 | 5.30 to 6.00 | > 7.30 | 5.30 to 6.00 | 6.60 to 7.30
CN1CCN(Cc2ccc(-c3cc4nccc(Oc5ccc(NC(=O)C6CCN(c7ccccc7)C6=O)cc5F)c4s3)nc2)CC1 (centres unmarked) | 5.30 to 6.00 | > 7.30 | 5.30 to 6.00 | 6.60 to 7.30
CCn1cnc(-c2cc3nccc(Oc4ccc(NC(=O)CC(=O)N5CCOc6ccccc65)cc4F)c3s2)c1 | > 6.00 | > 7.30 | > 6.00 | > 7.30
CCCn1cnc(-c2cc3nccc(Oc4ccc(NC(=O)CC(=O)Nc5ccc(F)cc5)cc4F)c3s2)c1 | > 6.00 | > 7.30 | > 6.00 | > 7.30
CN1CCN(CCN(C)Cc2ccc(-c3cc4nccc(Oc5ccc(NC(=O)CC(=O)N(C)c6ccccc6)cc5F)c4s3)cc2)CC1 | 5.30 to 6.00 | > 7.30 | > 6.00 | > 7.30
O=C(Nc1ccc(Oc2ccnc3cc(-c4cn(CCCN5CCCC5)cn4)sc23)c(F)c1)N1CCN(c2ccccc2F)C1=O | 5.00 to 5.30 | > 7.30 | < 5.00 | 6.60 to 7.30
Cn1cnc(-c2cc3nccc(Oc4ccc(NC(=O)CC(=O)Nc5ccccc5)cc4F)c3s2)c1 [drawing 287] | > 6.00 | > 7.30 | > 6.00 | > 7.30
CCn1cnc(-c2cc3nccc(Oc4ccc(NC(=S)N5CCN(c6ccccc6)C5=O)cc4F)c3s2)c1 | > 6.00 | > 7.30 | > 6.00 | > 7.30

Compound | pIC50 [1] | pIC50 [2] | pIC50 [3] | pIC50 [4]
CCn1cnc(-c2cc3nccc(Oc4ccc(NC(=O)N5CCN(c6ccccc6)C5=O)cc4F)c3s2)c1 | > 6.00 | > 7.30 | > 6.00 | > 7.30
Cn1ccnc1-c1cc2nccc(Oc3ccc(NC(=S)N4CCN(c5ccc(F)cc5)C4=O)cc3F)c2s1 | > 6.00 | > 7.30 | > 6.00 | 6.60 to 7.30
Cn1cnc(-c2cc3nccc(Nc4ccc(NC(=O)C5(C(=O)Nc6ccccc6)CC5)cc4F)c3s2)c1 | > 6.00 | 6.60 to 7.30 | > 6.00 | > 7.30
Cn1cnc(-c2cc3nccc(Oc4ccc(NC(=O)N5CCN(c6ccccc6)C5=S)cc4F)c3s2)c1 | < 5.00 | < 6.30 | < 5.00 | < 6.30
CN(C)[C@H]1CCN(Cc2ccc(-c3cc4nccc(Oc5ccc(NC(=O)CC(=O)Nc6ccccc6)cc5F)c4s3)cc2)C1 | 5.30 to 6.00 | > 7.30 | > 6.00 | 6.60 to 7.30
CN1CC=C(c2cc3nccc(Oc4ccc(NC(=O)N5CCN(c6ccccc6)C5=O)cc4F)c3s2)CC1 | > 6.00 | 6.60 to 7.30 | > 6.00 | > 7.30
CN(C)Cc1ccc(-c2cc3nccc(Oc4ccc(NC(=O)N5CCN(c6ccc(F)cc6)C5=O)cc4F)c3s2)nc1 | > 6.00 | > 7.30 | > 6.00 | > 7.30
CN(C)CCn1cnc(-c2cc3nccc(Oc4ccc(NC(=O)N5CCN(c6ccccc6)C5=O)cc4F)c3s2)c1 | > 6.00 | > 7.30 | > 6.00 | > 7.30
CCn1cnc(-c2cc3nccc(Oc4ccc(NC(=O)CC(=O)Nc5ccc(OC)cc5)cc4F)c3s2)c1 | > 6.00 | > 7.30 | 5.30 to 6.00 | 6.60 to 7.30
O=C(Nc1ccc(Oc2ccnc3cc(-c4cn(CCN5CCCC5)cn4)sc23)c(F)c1)N1CCN(c2ccccc2)C1=O | > 6.00 | > 7.30 | > 6.00 | > 7.30
O=C(CC(=O)Nc1ccccc1F)Nc1ccc(Oc2ccnc3cc(C#CCN4CCOCC4)sc23)c(F)c1 | 5.30 to 6.00 | 6.30 to 6.60 | < 5.00 | 6.60 to 7.30
Cn1cnc(-c2cc3nccc(Oc4ccc(NC(=O)CC(=O)Nc5ccccc5F)cc4F)c3s2)c1 | > 6.00 | > 7.30 | > 6.00 | > 7.30
CC(=O)N1CC=C(c2cc3nccc(Oc4ccc(NC(=O)N5CCN(c6ccc(F)cc6)C5=O)cc4F)c3s2)CC1 | > 6.00 | > 7.30 | > 6.00 | > 7.30
Cn1ccnc1-c1cc2nccc(Oc3ccc(NC(=O)CS(=O)(=O)c4ccc(F)cc4)cc3F)c2s1 | 5.30 to 6.00 | 6.60 to 7.30 | 5.30 to 6.00 | 6.30 to 6.60
CCn1cnc(-c2cc3nccc(Oc4ccc(NC(=O)N5CCN(c6ccccc6F)C5=O)cc4F)c3s2)c1 | > 6.00 | > 7.30 | > 6.00 | > 7.30
COc1ccccc1NC(=O)CC(=O)Nc1ccc(Oc2ccnc3cc(-c4cn(CCN(C)C)cn4)sc23)c(F)c1 | > 6.00 | > 7.30 | > 6.00 | 6.60 to 7.30
CN(C(=O)CC(=O)Nc1ccc(Oc2ccnc3cc(-c4cn(C)cn4)sc23)c(F)c1)c1ccccc1F | > 6.00 | > 7.30 | 5.30 to 6.00 | 6.60 to 7.30
CCn1cnc(-c2cc3nccc(Oc4ccc(NC(=O)CC(=O)Nc5ccc(F)cc5)cc4F)c3s2)c1 | > 6.00 | > 7.30 | > 6.00 | > 7.30
COCCn1cnc(-c2cc3nccc(Oc4ccc(NC(=O)CC(=O)Nc5ccccc5)cc4F)c3s2)c1 | > 6.00 | > 7.30 | > 6.00 | > 7.30
Cn1cncc1-c1cc2nccc(Oc3ccc(NC(=O)CC(=O)Nc4ccccc4O)cc3F)c2s1 | < 5.00 | > 7.30 | 5.30 to 6.00 | 6.60 to 7.30
